# ChEMBL document CHEMBL3045635, “Synthesis and in vitro antimicrobial evaluation of novel 2-amino-6-(phenylthio)-4-(2-(phenylthio)quinolin-3-yl)pyridine-3,5-dicarbonitriles” (2013)
# What was measured:
# Type in all cases: functional
# Aspergillus fumigatus = test: Antifungal activity against Aspergillus fumigatus MTCC 3008 after 48 hr by broth microdilution method; details: MTCC 3008, 48 h
# Candida albicans = test: Antifungal activity against Candida albicans MTCC 227 after 48 hr by broth microdilution method; details: MTCC 227, 48 h
# Clostridium tetani = test: Antibacterial activity against Clostridium tetani MTCC 449 after 24 hr by broth microdilution method; details: MTCC 449, 24 h
# Bacillus subtilis = test: Antibacterial activity against Bacillus subtilis MTCC 441 after 24 hr by broth microdilution method; details: MTCC 441, 24 h
# Streptococcus pneumoniae = test: Antibacterial activity against Streptococcus pneumoniae MTCC 1936 after 24 hr by broth microdilution method; details: MTCC 1936, 24 h
# Salmonella typhi = test: Antibacterial activity against Salmonella enterica subsp. enterica serovar Typhi MTCC 98 after 24 hr by broth microdilution method; details: MTCC 98, 24 h
# Escherichia coli = test: Antibacterial activity against Escherichia coli MTCC 443 after 24 hr by broth microdilution method; details: MTCC 443, 24 h
# Vibrio cholerae = test: Antibacterial activity against Vibrio cholerae MTCC 3906 after 24 hr by broth microdilution method; details: MTCC 3906, 24 h
SMILES,MIC (Aspergillus fumigatus) [µg/mL],MIC (Candida albicans) [µg/mL],MIC (Clostridium tetani) [µg/mL],MIC (Bacillus subtilis) [µg/mL],MIC (Streptococcus pneumoniae) [µg/mL],MIC (Salmonella typhi) [µg/mL],MIC (Escherichia coli) [µg/mL],MIC (Vibrio cholerae) [µg/mL]
COC1=CC(=O)C[C@@H](C)[C@]12Oc1c(Cl)c(OC)cc(OC)c1C2=O [GRISEOFULVIN],100,500,,,,,,
N#Cc1c(N)nc(Sc2ccc(Cl)cc2)c(C#N)c1-c1cc2ccccc2nc1Sc1ccccc1,1000,1000,200,250,500,250,250,250
Cc1ccc(Sc2nc(N)c(C#N)c(-c3cc4ccccc4nc3Sc3ccc(Cl)cc3)c2C#N)cc1,> 1000,250,250,100,200,100,62.5,200
Cc1ccc(Sc2nc(N)c(C#N)c(-c3cc4ccccc4nc3Sc3ccccc3)c2C#N)cc1,250,1000,250,200,250,125,100,250
N#Cc1c(N)nc(Sc2ccccc2)c(C#N)c1-c1cc2ccccc2nc1Sc1ccc(Cl)cc1,1000,200,200,100,200,200,100,100
Cc1ccc(Sc2nc3ccccc3cc2C=O)cc1,200,1000,250,250,250,250,200,250
Cc1ccc(Sc2nc3ccc(C)cc3cc2C=O)cc1,250,500,250,250,250,200,250,125
Cc1ccc(Sc2nc(N)c(C#N)c(-c3cc4cc(C)ccc4nc3Sc3ccc(Cl)cc3)c2C#N)cc1,250,> 1000,250,100,100,200,200,250
Cc1ccc2nc(Sc3ccccc3)c(-c3c(C#N)c(N)nc(Sc4ccccc4)c3C#N)cc2c1,250,1000,250,250,250,200,200,250
O=C(O)c1cn(C2CC2)c2cc(N3CCNCC3)c(F)cc2c1=O [CIPROFLOXACIN],,,,,50,25,25,25
Cc1ccc(Sc2nc3ccccc3cc2-c2c(C#N)c(N)nc(Sc3ccc(Cl)cc3)c2C#N)cc1,> 1000,> 1000,100,200,250,200,200,200
CCn1cc(C(=O)O)c(=O)c2cc(F)c(N3CCNCC3)cc21 [NORFLOXACIN],,,50,100,10,10,10,10
Cc1ccc2nc(Sc3ccccc3)c(-c3c(C#N)c(N)nc(Sc4ccc(Cl)cc4)c3C#N)cc2c1,250,> 1000,200,500,500,100,50,200
CC1(C)S[C@@H]2[C@H](NC(=O)[C@H](N)c3ccccc3)C(=O)N2[C@H]1C(=O)O [AMPICILLIN],,,250,250,100,100,100,100
Cc1ccc(Sc2nc3ccc(C)cc3cc2-c2c(C#N)c(N)nc(Sc3ccc(Cl)cc3)c2C#N)cc1,> 1000,1000,100,250,250,100,100,200
